# Patent publication US6166290A, “Glutathione-S-conjugate transport in plants” (The Trustees of the University of Pennsylvania, priority 1997, dated 2000)
# Several values for one entry are separate records, joined by “and”; a condition that tells them apart may be missing. Equal entries are not always repeated.
# Assays:
# [1] = biological target: T1, AtMRP1 (Arabidopsis thaliana, UniProt Q9C8G9); assay: AtMRP1-dependent uptake by membrane vesicles from pYES3-AtMRP1-transformed DTY168 cells; format: biochemical
# T1 construct: S. cerevisiae DTY168 (ycf1 null) vacuolar-enriched membrane vesicles
# T1 sequence (Q9C8G9 whole entry): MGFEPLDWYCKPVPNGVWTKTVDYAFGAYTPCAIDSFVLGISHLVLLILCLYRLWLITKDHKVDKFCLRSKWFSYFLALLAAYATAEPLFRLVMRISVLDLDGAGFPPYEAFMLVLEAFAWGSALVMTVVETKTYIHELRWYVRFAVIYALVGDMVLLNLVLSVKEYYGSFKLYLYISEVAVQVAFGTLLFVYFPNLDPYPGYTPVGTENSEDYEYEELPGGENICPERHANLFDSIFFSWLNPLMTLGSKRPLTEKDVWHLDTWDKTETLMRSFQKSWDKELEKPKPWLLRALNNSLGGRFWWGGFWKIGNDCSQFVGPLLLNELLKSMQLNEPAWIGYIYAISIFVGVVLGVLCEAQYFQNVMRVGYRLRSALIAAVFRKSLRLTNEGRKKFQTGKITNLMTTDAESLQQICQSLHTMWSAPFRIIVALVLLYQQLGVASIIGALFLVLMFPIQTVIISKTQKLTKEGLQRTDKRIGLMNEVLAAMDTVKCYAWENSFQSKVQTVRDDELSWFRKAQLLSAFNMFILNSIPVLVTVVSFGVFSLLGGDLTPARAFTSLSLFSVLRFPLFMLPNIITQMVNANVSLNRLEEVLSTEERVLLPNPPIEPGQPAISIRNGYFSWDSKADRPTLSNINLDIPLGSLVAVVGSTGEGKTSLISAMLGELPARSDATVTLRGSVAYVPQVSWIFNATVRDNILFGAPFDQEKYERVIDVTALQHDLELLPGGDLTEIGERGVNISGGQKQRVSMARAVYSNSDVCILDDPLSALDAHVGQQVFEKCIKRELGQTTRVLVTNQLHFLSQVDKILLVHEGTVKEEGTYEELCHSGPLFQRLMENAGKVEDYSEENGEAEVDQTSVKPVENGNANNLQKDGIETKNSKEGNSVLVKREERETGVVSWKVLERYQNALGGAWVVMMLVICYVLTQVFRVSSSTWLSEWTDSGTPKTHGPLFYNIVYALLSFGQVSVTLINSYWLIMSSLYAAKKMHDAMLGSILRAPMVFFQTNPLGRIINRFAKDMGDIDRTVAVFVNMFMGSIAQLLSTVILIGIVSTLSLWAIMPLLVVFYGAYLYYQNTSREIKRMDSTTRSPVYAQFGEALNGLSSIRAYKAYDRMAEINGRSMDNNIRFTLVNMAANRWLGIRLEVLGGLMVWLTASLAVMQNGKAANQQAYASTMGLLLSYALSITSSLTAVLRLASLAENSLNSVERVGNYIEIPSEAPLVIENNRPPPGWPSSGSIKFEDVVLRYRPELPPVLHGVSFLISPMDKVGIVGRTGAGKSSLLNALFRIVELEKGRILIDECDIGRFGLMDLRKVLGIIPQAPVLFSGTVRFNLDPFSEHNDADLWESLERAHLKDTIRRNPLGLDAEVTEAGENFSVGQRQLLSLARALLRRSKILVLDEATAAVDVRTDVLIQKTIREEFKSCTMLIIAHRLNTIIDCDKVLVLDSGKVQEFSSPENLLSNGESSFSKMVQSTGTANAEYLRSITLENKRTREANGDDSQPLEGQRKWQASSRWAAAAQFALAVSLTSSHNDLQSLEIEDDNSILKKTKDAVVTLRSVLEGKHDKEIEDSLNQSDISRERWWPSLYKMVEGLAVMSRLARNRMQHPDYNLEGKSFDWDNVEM
# Protocol: S. cerevisiae strain DTY168 (MATα his6, leu2-3, -112, ura3-52 ycf1::hisG) was transformed with pYES3-AtMRP1 or empty vector lacking the AtMRP1 insert (pYES3) by the LiOAc/PEG method (Giest et al., 1991, Yeast 7:253-263) and selected for uracil prototrophy by plating on AHC medium containing tryptophan (Kim et al., 1994, supra).
# For the preparation of membrane vesicles, 15 ml volumes of stationary phase cultures of the transformants were diluted into 1 L of fresh AHC medium and grown to an OD600 nm of about 1.2. Membrane vesicles were purified as described herein and in Kim et al. (1995, supra).
# […] μl reaction volumes containing 3 mM ATP, 3 mM MgSO4, 5 μM gramicidin-D, 10 mM creatine phosphate, 16 units/ml creatine kinase, 50 mM KCl, 1 mg/ml BSA, 400 mM sorbitol, 25 mM Tris-Mes ([…]).
# (§1) Cells were grown and vacuolar membrane-enriched vesicles were prepared as described (Kim et al., 1995, J Biol. Chem. 270:2630-2635-). […] Uptake was terminated by the addition of 1 ml ice-cold wash medium (400 mM sorbitol/3 mM Tris-Mes, pH 8.0) and vacuum filtration of the suspension through prewetted Millipore HA cellulose nitrate filters (pore size 0.45 μm). The filters were rinsed twice with wash medium, and the retained radioactivity was determined by liquid scintillation counting. Nonenergized uptake was estimated by the same procedure except that ATP was omitted from the uptake medium.
# [2] = biological target: T2, AtMRP2 (Arabidopsis thaliana, UniProt Q42093); assay: AtMRP2-dependent uptake by membrane vesicles from pYES3-AtMRP2-transformed DTY168 cells; format: biochemical
# T2 construct: S. cerevisiae DTY168 (ycf1 null) vacuolar-enriched membrane vesicles
# T2 sequence (Q42093 whole entry): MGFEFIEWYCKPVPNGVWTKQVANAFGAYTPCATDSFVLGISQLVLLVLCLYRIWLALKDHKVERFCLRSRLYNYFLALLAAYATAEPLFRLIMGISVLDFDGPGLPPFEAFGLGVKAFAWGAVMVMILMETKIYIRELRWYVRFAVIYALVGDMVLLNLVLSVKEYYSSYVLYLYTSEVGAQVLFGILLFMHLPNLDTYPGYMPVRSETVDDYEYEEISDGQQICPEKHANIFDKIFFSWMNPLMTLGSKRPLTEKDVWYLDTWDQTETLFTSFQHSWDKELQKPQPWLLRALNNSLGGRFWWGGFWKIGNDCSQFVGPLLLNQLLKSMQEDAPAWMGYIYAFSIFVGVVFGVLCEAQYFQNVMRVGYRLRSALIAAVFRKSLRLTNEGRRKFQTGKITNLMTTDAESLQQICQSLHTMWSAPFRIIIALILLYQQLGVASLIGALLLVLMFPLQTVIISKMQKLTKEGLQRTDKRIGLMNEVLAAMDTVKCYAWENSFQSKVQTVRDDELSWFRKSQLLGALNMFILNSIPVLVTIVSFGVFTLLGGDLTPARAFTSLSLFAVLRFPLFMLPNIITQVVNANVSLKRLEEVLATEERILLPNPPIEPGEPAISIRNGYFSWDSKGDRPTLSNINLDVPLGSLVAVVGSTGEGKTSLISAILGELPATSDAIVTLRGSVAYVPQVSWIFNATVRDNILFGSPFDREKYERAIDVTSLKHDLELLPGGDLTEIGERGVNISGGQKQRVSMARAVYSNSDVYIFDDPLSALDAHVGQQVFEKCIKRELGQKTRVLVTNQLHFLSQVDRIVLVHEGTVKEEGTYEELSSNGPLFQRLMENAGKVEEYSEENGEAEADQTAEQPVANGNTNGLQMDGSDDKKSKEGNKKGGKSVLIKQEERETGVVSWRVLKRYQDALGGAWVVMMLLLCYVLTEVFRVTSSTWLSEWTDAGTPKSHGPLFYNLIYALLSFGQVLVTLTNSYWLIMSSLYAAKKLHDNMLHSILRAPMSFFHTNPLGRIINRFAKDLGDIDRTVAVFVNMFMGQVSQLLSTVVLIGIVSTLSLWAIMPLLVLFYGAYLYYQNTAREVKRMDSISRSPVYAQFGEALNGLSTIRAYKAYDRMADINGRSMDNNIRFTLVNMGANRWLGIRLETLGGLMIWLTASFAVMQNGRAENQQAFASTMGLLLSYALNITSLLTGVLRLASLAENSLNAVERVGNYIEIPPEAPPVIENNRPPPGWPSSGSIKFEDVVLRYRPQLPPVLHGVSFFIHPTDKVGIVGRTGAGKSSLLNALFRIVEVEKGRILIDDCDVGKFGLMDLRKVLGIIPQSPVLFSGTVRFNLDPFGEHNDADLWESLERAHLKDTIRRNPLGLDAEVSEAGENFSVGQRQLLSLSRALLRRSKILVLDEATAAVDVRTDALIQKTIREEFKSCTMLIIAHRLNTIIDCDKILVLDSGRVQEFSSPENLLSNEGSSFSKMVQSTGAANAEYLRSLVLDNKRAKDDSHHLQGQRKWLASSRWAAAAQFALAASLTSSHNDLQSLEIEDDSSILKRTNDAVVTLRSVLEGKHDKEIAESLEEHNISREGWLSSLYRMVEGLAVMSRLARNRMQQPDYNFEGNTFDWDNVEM
# Protocol: as §1
# Membranes from DTY168/pYES3-AtMRP2 cells were incubated for 10 minutes in standard uptake medium containing 61.3 μM [^3 H]DNP-GS after which time 200 mM glucose and 50 units/ml hexokinase (Type F-300 from baker's yeast) were added. […] Control samples were treated identically except that no additions were made after the initial 10 minute incubation period.
# [3] = biological target: T3, YCF1 (vacuolar membrane vesicles purified from DTY165 cells) (Saccharomyces cerevisiae, UniProt P39109); assay: [3H]DNP-GS uptake by vacuolar membrane vesicles purified from DTY165 cells; format: biochemical
# T3 construct: endogenous in cells; host or cells: S. cerevisiae DTY165 (wild type YCF1), vacuolar membrane vesicles
# T3 sequence (P39109 whole entry): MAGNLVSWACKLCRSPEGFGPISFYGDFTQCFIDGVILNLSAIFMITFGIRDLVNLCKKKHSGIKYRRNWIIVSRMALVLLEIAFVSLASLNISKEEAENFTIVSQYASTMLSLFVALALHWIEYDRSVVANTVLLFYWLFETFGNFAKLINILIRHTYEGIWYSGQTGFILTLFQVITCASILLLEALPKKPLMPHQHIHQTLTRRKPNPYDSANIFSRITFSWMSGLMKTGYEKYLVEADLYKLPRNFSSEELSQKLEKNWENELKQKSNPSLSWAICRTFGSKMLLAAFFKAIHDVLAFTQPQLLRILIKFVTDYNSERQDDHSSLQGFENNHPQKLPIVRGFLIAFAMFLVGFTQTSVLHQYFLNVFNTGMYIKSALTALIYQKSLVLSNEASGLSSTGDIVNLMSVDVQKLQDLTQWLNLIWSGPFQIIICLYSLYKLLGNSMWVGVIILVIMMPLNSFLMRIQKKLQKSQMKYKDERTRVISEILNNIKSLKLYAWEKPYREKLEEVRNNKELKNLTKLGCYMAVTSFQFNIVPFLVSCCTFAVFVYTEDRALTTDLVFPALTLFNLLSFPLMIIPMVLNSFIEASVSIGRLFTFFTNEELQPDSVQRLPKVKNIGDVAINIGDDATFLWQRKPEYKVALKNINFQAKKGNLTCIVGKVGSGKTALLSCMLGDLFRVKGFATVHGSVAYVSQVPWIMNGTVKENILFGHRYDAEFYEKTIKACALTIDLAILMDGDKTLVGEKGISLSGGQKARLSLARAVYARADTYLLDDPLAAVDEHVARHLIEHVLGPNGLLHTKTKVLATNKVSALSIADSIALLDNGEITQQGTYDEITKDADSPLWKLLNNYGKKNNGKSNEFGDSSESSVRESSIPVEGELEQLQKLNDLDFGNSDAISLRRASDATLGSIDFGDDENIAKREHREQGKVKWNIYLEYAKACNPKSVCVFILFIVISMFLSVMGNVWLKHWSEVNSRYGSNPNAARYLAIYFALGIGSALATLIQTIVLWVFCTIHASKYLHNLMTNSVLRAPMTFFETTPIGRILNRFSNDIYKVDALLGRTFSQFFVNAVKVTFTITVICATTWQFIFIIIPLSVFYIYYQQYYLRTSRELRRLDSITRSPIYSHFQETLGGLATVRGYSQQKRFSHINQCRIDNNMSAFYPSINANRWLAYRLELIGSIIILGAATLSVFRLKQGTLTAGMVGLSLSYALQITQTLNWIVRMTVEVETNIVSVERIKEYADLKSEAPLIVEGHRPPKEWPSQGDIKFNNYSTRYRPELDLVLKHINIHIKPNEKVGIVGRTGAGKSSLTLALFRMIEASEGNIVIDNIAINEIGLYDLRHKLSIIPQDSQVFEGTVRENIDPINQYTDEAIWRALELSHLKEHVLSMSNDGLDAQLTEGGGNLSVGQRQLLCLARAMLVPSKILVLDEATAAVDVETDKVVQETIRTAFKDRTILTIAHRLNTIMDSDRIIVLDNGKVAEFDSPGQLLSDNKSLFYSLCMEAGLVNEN
# Protocol: (§2) For the routine preparation of vacuolar membrane vesicles, 15 ml of stationary phase cultures of DTY165 or DTY167 were diluted into 1-liter volumes of fresh YPD medium, grown for 24 hours at 30° C. to an OD600 nm of approximately 0.8 and collected by centrifugation. After washing with distilled water, the cells were converted to spheroplasts with Zymolyase 20T (ICN) (Kim et al., 1994, supra) and intact vacuoles were isolated by flotation centrifugation of spheroplast lysates on Ficoll 400 step gradients as described by Roberts et al. (1991, Methods. Enzymol. 194:644-661). Both the spheroplast lysis buffer and Ficoll gradients contained 2 mg/ml bovine serum albumin, 1 μg/ml aprotinin, 1 μg/ml leupeptin, 1 μg/ml pepstatin, and 1 mM PMSF to minimize proteolysis. The resulting vacuole fraction was vesiculated in 5 mM MgCl2, 25 mM KCl, 10 mM Tris-Mes (pH 6.9) containing 2 mg/ml bovine serum albumin, 1 μg/ml aprotinin, 1 μg/ml leupeptin, 1 μg/ml pepstatin, and 1 mM PMSF, pelleted by centrifugation at 37,000× g for 25 min, and resuspended in suspension medium (1.1 M glycerol, 2 mM dithiothreitol, 1 mM Tris-EGTA, 2 mg/ml bovine serum albumin, 1 μg/ml aprotinin, 1 μg/ml leupeptin, 1 μg/ml pepstatin, 1 mM PMSF, 5 mM Tris-Mes, pH 7.6) (Kim et al., 1995, J. Biol. Chem. 270:2630-2635).
# (§3) Unless otherwise indicated, [^3 H]DNP-GS uptake was measured at 25° C. in 200 μl reaction volumes containing 3 mM ATP, 3 mM MgSO4, 5 μM gramicidin-D, 10 mM creatine phosphate, 16 units/ml creatine kinase, 50 mM KC 1, 1 mg/ml bovine serum albumin, 400 mM sorbitol, 25 mM Tris-Mes (pH 8.0), and 66.2 μM [^3 H]DNP-GS (8.7 mCi/mmol) (Li et al., 1995, supra). […] Uptake was initiated by the addition of vacuolar membrane vesicles (10-15 μg of membrane protein), brief mixing of the samples on a vortex mixer and uptake was then allowed to proceed for 1-60 minutes. Uptake was terminated by the addition of 1 ml of ice-cold wash medium (400 mM sorbitol, 3 mM Tris-Mes, pH 8.0) and vacuum filtration of the suspension through prewetted Millipore HA cellulose nitrate membrane filters (pore diameter, 0.45 μm). The filters were rinsed twice with 1 ml of ice-cold wash medium and air-dried, and radioactivity was determined by liquid scintillation counting in BCS mixture (Amersham Corp.). Nonenergized [^3 H]DNP-GS uptake and extravesicular solution trapped on the filters were enumerated by the same procedure except that ATP and Mg^2 +were omitted from the uptake medium.
# [4] = system: vacuolar membrane vesicles purified from DTY167 cells (ycf1Δ mutant); format: biochemical, Saccharomyces cerevisiae
# Protocol: as §2, §3
# [5] = biological target: T3, YCF1 (vacuolar membrane vesicles purified from DTY165 cells); assay: biochemical; format: biochemical
# Protocol: (§4) In experiments involving cadmium transport, dithiothreitol and EGTA were removed from the suspension medium to prevent the attenuation of YCF1-dependent Cd^2+ transport otherwise exerted by these compounds. Vesiculated vacuolar membranes were subjected to three cycles of 50-fold dilution into simplified suspension medium (1.1 M glycerol, 5 mM Tris-Mes, pH 8.0), centrifugation at 100,000× g for 35 minutes and resuspension in the same medium before use.
# (§5) Singly radiolabeled ^109 Cd.GSn and doubly radio-labeled ^109 Cd[^3 H].GS^n complexes were prepared by sequential gel-filtrationand anion-exchange chromatography of the reaction products generated by incubating 20 mM ^109 CdSO4 (78.4 mCi/mmol) with 40 mM GSH or 40 mM [^3 H]GSH (240 mCi/mmol) in 15 ml 10 mM phosphate buffer (pH 8.0) containing 150 mM KNO3 at 45° C. for 24 hours. For gel-filtration, 2 ml aliquots of the reaction mixture were applied to a column (40×1.5 cm ID) packed with water-equilibrated Sephadex G-1 5, eluted with deionized water and ^109 Cd and/or ^3 H in the fractions was measured by liquid scintillation counting. The fractions encompassed by each of the two ^109 Cd.GSn peaks identified were pooled, lyophilized and redissolved in 4 ml of loading buffer (5 mM Tris-Mes, pH 8.0). For anion-exchange chromatography, 0.5 ml aliquots of the resuspended lyophilizates from gel-filtration chromatography were applied to a Mono-Q HR5/5 column (Pharmacia) equilibrated with the same buffer. Elution was with a linear gradient of NaCl (0.5 ml/minute; 0-500 mM) dissolved in loading buffer. The individual fractions corresponding to the major peaks of ^109 Cd obtained from the Mono-Q column (one each for the peaks resolved by gel-filtration chromatography) were pooled, lyophilized and resuspended in 4 ml deionized water after liquid scintillation counting.
# (§6) MgATP-energized, uncoupler-insensitive ^109 Cd^2+ uptake by vacuolar membrane vesicles was measured at 25° C. in 200 μl reaction volumes containing 3 mM ATP, 3 mM MgSO4, 5 μM gramicidin-D, 10 mM creatine phosphate, 16 units/ml creatine kinase, 50 mM KCl, 400 mM sorbitol, 25 mM Tris-Mes (pH 8.0) and the indicated concentrations of ^109 CdSO4, GSH or ^109 Cd- and/or ^3 H-labeled purified Cd.GSn complexes as described herein except that the wash media contained 100 μM CdSO4 in addition to sorbitol (400 mM) and Tris-Mes (3 mM, pH 8.0).
# [6] = system: vacuolar GS-X pump (vacuolar membrane vesicles, V. radiata hypocotyls); assay: GS-conjugate uptake by vacuolar membrane vesicles from etiolated hypocotyls of V. radiata; format: biochemical, Vigna radiata
# Protocol: Values shown are means ±SE (n=3).
# Vacuolar membrane vesicles were purified from etiolated hypocotyls of V. radiata cv.
# Unless otherwise indicated, [^3 H]medicarpin or [3H]medicarpin-GS uptake was measured at 25° C. in 200 μl reaction volumes containing 3 mM ATP, 3 mM MgSO4, 10 mM creatine phosphate, 16 U/ml creatine kinase, 50 mM KCl, 0.1% (w/v) BSA, 400 mM sorbitol and 25 mM Tris-Mes buffer, pH 8.0. Uptake was initiated by the addition of 12 μl membrane vesicles (30-40 μg protein) and brief mixing of the samples on a vortex mixer. Uptake was terminated by the addition of 1 ml ice-cold wash medium (400 mM sorbitol, 3 mM Tris-Mes, pH 8.0) and vacuum filtration of the suspension through prewetted HA cellulose nitrate filters (pore diameter 0.45 μm). The filters were rinsed twice with a 1 ml ice-cold wash medium, air-dried and radioactivity was determined by liquid scintillation counting.
# [7] = system: vacuolar membrane vesicles purified from DTY167 cells (ycf1Δ mutant); format: biochemical, Saccharomyces cerevisiae; remark: listed apart in the source
# Protocol: as §4, §5, §6
# [8] = MgATP-dependent, uncoupler-insensitive
# [9] = 66.2 μM DNP-GS, 3 mM MgATP (omitted with MgAMP-PNP), MgAMP-PNP 3 mM, bafilomycin A1 0.5 μM, FCCP 5 μM, gramicidin D 5 μM, NH4Cl 1 mM
# [10] = as Table 1 concentrations, 10 min
# [11] = 50 μM 109Cd.GS2, bafilomycin A1 0.5 μM, FCCP 5 μM, gramicidin-D 5 μM, NH4Cl 1 mM
# [12] = as Table 7 concentrations, 10 min
# [13] = gramicidin-D 5 μM, vanadate 10 μM, DNP-GS 100 μM
compound,measurement,setting,value
C=CC1=C(C)C(Cc2[nH]c(C3c4[nH]c(Cc5[nH]c(C=O)c(C)c5CCOC(=O)CC(=O)O)c(C)c4C(=O)C3C(=O)O)c(CCC(=O)O)c2C)NC1=O (stereo not drawn) [Bn-NCC-1],Km for AtMRP1-dependent uptake,[1]; [8],Linear
same,Km,[2]; [8],15.2 µM and 15 µM
same,Vmax for AtMRP2-dependent uptake,[2]; [8],63.1 ± 2.5 nmol/mg/10 min
"OC[C@H]1O[C@@H](Oc2cc3c(O)cc(O)cc3[o+]c2-c2ccc(O)c(O)c2)[C@H](O)[C@@H](O)[C@@H]1O [C3G, cyanidin-3-glucoside]","MgATP-dependent, uncoupler-insensitive uptake of unconjugated precursor detectable",[1],In no case
same,"MgATP-dependent, uncoupler-insensitive uptake of unconjugated precursor detectable",[2],In no case
O=[N+]([O-])c1ccc(Cl)c([N+](=O)[O-])c1 [DNP],"MgATP-dependent, uncoupler-insensitive uptake of unconjugated precursor detectable",[1],In no case
same,"MgATP-dependent, uncoupler-insensitive uptake of unconjugated precursor detectable",[2],In no case
"N[C@@H](CCC(=O)N[C@@H](CS)C(=O)NCC(=O)O)C(=O)O [GSH, glutathione]","MgATP-dependent, uncoupler-insensitive DNP-GS uptake plus compound",[3],50.6 ± 2.3 nmol/mg/10 minutes
same,"MgATP-dependent, uncoupler-insensitive DNP-GS uptake as percentage of control","[3]; dty165 vacuolar membrane vesicles, 10 min",105.6
same,"MgATP-dependent, uncoupler-insensitive DNP-GS uptake plus compound",[4],4.6 ± 1.1 nmol/mg/10 minutes
same,"MgATP-dependent, uncoupler-insensitive DNP-GS uptake as percentage of control","[4]; dty167 vacuolar membrane vesicles, 10 min",70.8
same,t1/2 of GSH stimulation of Cd2+ uptake,[5],< 5 min
same,"MgATP-dependent, uncoupler-insensitive uptake of unconjugated precursor detectable",[1],In no case
same,"MgATP-dependent, uncoupler-insensitive uptake of unconjugated precursor detectable",[2],In no case
COc1ccc2c(c1)OC1c3ccc(O)cc3OCC21 (stereo not drawn) [medicarpin],uptake in the presence of MgATP,"[6]; 65 μM, 3 mM MgATP",16.7±3.6 nmol/mg/20 minutes
same,uptake in the absence of MgATP,"[6]; 65 μM, -MgATP",7.4±1.3 nmol/mg/20 minutes
CCc1cccc(C)c1N(C(=O)CCl)C(C)COC (stereo not drawn) [metolachlor],"MgATP-dependent, uncoupler-insensitive uptake of unconjugated precursor detectable",[1],In no case
same,"MgATP-dependent, uncoupler-insensitive uptake of unconjugated precursor detectable",[2],In no case
Gramicidin D,DNP-GS uptake plus the compound indicated,[3]; [9],45.8 ± 1.4 nmol/mg/10 minutes
same,DNP-GS uptake as percentage of control plus the compound indicated,[3]; [10],58.9%
same,DNP-GS uptake plus the compound indicated,[4]; [9],5.8 ± 0.1 nmol/mg/10 minutes
same,DNP-GS uptake as percentage of control plus the compound indicated,[4]; [10],37.7%
same,109Cd.GS2 uptake plus addition,[5]; [11],77.8 ± 6.4 nmol/mg/10 minutes
same,109Cd.GS2 uptake as percentage of control,[5]; [12],73.5%
same,decrease of MgATP-dependent Cd.GS2 uptake,[5]; text to Table 7,22%
same,109Cd.GS2 uptake plus addition,[7]; [11],9.3 ± 2.0 nmol/mg/10 minutes
same,109Cd.GS2 uptake as percentage of control,[7]; [12],56.6%
same,"[3H]Medicarpin-GS uptake with treatment, +MgATP","[6]; 65 μM medicarpin-GS, 3 mM MgATP, gramicidin-D 5 μM, vanadate 10 μM, DNP-GS 100 μM",71.2 ± 3.0 nmol/mg/10 minutes
same,"[3H]Medicarpin-GS uptake with treatment, -MgATP","[6]; 65 μM medicarpin-GS, gramicidin-D 5 μM, vanadate 10 μM, DNP-GS 100 μM",13.2 ± 2.1 nmol/mg/10 minutes
same,"[3H]Medicarpin-GS uptake as percentage of control, +MgATP",[6]; [13],83.2%
same,"[3H]Medicarpin-GS uptake as percentage of control, -MgATP",[6]; [13],79.0%
same,inhibition of MgATP-dependent [3H]medicarpin-GS uptake,"[6]; vanadate 10 μM, DNP-GS 100 μM, gramicidin D",17%
Triton X-100,release (efflux) of accumulated [3H]DNP-GS after hexokinase trap,[2],more than 3 fold
